{"source": "patent US20080058211A1", "about": "“Method and Composition for the Modulation of Toxin Resistance in Plant Cells” (BOARD OF REGENTS, THE UNIVERSITY OF TEXAS SYSTEM, priority 2006, published 2008)", "key": {"Δ[Ca^2+]cyt": {"test_system": "Δ[Ca^2+]cyt", "conditions": "co-application with OGA; cited from earlier work"}, "[Ca^2+]cyt": {"test_system": "[Ca^2+]cyt", "conditions": "dextran-conjugated calcium green as reporter; cited from earlier work"}, "[1]": {"test_system": "root hairs of Arabidopsis thaliana", "conditions": "cited from earlier work; for induction of membrane depolarization: applied nucleotide or phosphate"}, "[2]": {"test_system": "ATMEKK1, ATMPK3, ATPK19, ERF2, ERF3, ERF4 and ACS6 genes", "conditions": "cited from earlier work"}, "roots": {"test_system": "roots", "conditions": "in vivo; cited from earlier work"}, "Arabidopsis leaves": {"test_system": "Arabidopsis leaves", "conditions": "cited from earlier work"}, "[3]": {"test_system": "[Ca^2+]cyt in excised roots", "conditions": "cited from earlier work; for effect on [Ca2+]cyt: 10 mM CaCl2; for suppression of the response of roots to eATP: antagonist or channel blocker with eATP"}, "Arabidopsis pollen tubes": {"test_system": "Arabidopsis pollen tubes", "test": "pollen tube elongation", "assay_type": "cell-based, Arabidopsis thaliana", "experimental": "Arabidopsis pollen tube elongation is inhibited by ATPγS. As vesicles fuse to deliver membranes to the tip of elongating pollen tubes, ATP is likely to be released. So ATPγS and AMPαS were investigated for their ability to affect pollen tube elongation. After pollen tubes had begun to grow, from about 0 to about 250 μM ATPγS or AMPαS were added and the subsequent growth rate was determined.\nBlocking the nitric oxide signaling pathway reverses the inhibition of Arabidopsis elongation by ATPγS. The inhibition of Arabidopsis pollen tube elongation was also mediated via the NO signaling pathway. Pollen tube growth rates were measured in 0.5% DMSO with and without 100 μM ATPγS.\nMeasurements of pollen tube elongation. Pollen was germinated as described above except 10 μL drops of pollen/PGM suspension were added to 60 μL of PGM+1% agar that had been deposited into a concavity slide. The pollen was allowed to germinate for 1-2 h, so that pollen tubes were clearly visible. Then 90 μL of PGM or PGM containing ATPγS, AMPαS, DMSO or ODQ was added and a photo was taken using a brightfield microscope at 40×. The coordinates of each photo were noted, so that the exact pollen tubes could be photographed 50-60 minutes later. Using Image J, the pollen tube lengths for individual pollen tubes were measured and a growth rate of μm/min was determined."}, "Arabidopsis pollen": {"test_system": "Arabidopsis pollen", "test": "in vitro pollen germination (Arabidopsis)", "assay_type": "cell-based, Arabidopsis thaliana", "experimental": "Effects of Extracellular ATPγS and AMPαS on Pollen Germination. Arabidopsis pollen was germinated in pollen germination media (PGM) containing from about zero to about 400 μM ATPγS or AMPαS. […] The method of collection included vortexing flowers in PGM creating a homogenous suspension of pollen from tens to hundreds of flowers. This method caused the release of a small amount of ATP, 2-5 μM into the PGM (data not shown).\nThe nitric oxide signaling pathway mediates the inhibition of Arabidopsis pollen germination by ATPγS. To examine the downstream effectors involved in the inhibition of Arabidopsis pollen germination by ATPγS, different agonists and antagonists of the known nitric oxide signaling pathway were examined. […] Some of the nitric oxide signaling pathway agonists are water soluble while others are DMSO soluble.\nStrains and Growth Conditions. For the experiments related to the nitric oxide-ATP signaling relationship, all Arabidopsis thaliana plants were ecotype Wassilewskija (WS), and Medicago truncatula plants were strain A17. All of the plants were grown in Metro-Mix 200 soil at 24° C. with constant light. In vitro Pollen Germination. Arabidopsis flowers in stage 12-14 (Smyth et al., 1990) or Medicago truncatula flowers in stage F3 (Firnhaber et al., 2005) were collected and vortexed for 1 min in pollen germination media (PGM) (0.01% boric acid, 1 mM MgSO4, 1 mM CaCl2, 1 mM Ca(NO3)2, 5 mM HEPES, 18% Sucrose pH 7.0). The supernatant containing the pollen was collected by pipet, and up to three rounds of vortexing of the same pollen could be pooled together. The pollen suspended in PGM was then added in 10-12 μL drops to 400 μL PGM+1% agar that had been spread as a thin film across a microscope slide. The slides and pollen were then placed into humidity chambers, petri dishes with water saturated kimwipes, and allowed to germinate at 26° C. overnight. Pictures of the germinated pollen were taken with a digital camera attached to a brightfield microscope at 40×. The digital images were scored for the percent of pollen germinated using the AlphaEase software from Alpha Innotech. Pollen with tubes that were shorter than the diameter of the pollen grain were not counted as germinated or non-germinated. The chemicals: ATPγS, AMPαS, N2, 2-O-dibutyrylguanosine 3′:5′-cyclic monophospohate (Dib cGMP), Sildenafil citrate (Viagra™, Pfizer), and 2-(N,N-Diethylamino)-diazenolate 2-oxide (NONOate) were added to the pollen/PGM suspension prior to adding the drops to the PGM+1% agar. The chemicals 1H-[1,2,4]Oxadiazolo[4,3,-a]quinoxalin-1-one (ODQ), N-[4-[1-(3-Aminopropyl)-2-hydroxy-2-nitrosohydrazino]butyl]-1,3-propanediamine (SNAP), and 3-isobutyl-1-methylxanthine (IBMX) were diluted in DMSO and added to the pollen/PGM suspension to a final concentration of DMSO of 0.1%.\nFor successful pollen germination it was critical for the plants to be healthy and growing in slightly dry soil. To achieve this, the plants were briefly watered 1-2 days before the experiment. As Johnson-Brousseau and McCormick note in their paper (Johnson-Brousseau and McCormick 2004), a solid base is necessary for best in vitro germination of Arabidopsis pollen. The pollen would not germinate in liquid PGM if not overlaid on a solid PGM+1% agar base, and the vortexing and deposition of the pollen/PGM suspension needed to take place in less than 30 minutes or germination rates dropped considerably."}, "[4]": {"test_system": "nitric oxide levels in elongating Arabidopsis pollen tubes", "test": "nitric oxide in elongating pollen tubes, DAF-2D fluorescence", "assay_type": "cell-based, Arabidopsis thaliana", "conditions": "125 μM", "experimental": "Increased extracellular ATPγS increases nitric oxide production in elongating pollen tubes. In addition to using agonists and antagonists to indirectly study the relationship of eATPγS and nitric oxide, direct measurements of increases in nitric oxide after application of ATPγS and AMPαS were examined. Pollen grains have a high level of auto-fluorescence and the nitric oxide levels in elongating Arabidopsis pollen tubes were determined using DAF-2D, a fluorescent marker for the presence of nitric oxide that was dissolved in DMSO. Elongating pollen tubes were treated with DAF-2D alone or with ATPγS or AMPαS.\nMeasurements of NO in growing pollen tubes treated with ATPγS or AMPαS. Pollen was germinated as described for the pollen elongation measurements. After 1-2 hours when pollen tubes were clearly visible, 90 μL of PGM containing 5 μM 4,5-diaminofluorescein diacetate (DAF-2D, Molecular Probes) with or without ATPγS or AMPαS was added. […] Using Image J, the average fluorescence for the pollen tubes on each slide and each time point were determined. Since background fluorescence for each slide varied, three areas where no pollen tubes were present were averaged and subtracted from the pollen tube averages for each slide. Pollen tubes with and without nucleotides were compared to each other at similar time points to determine if there was a difference in fluorescence."}, "[5]": {"conditions": "water-soluble agonist plus 50 μM ATPγS"}, "[6]": {"conditions": "DMSO-soluble agonist plus 50 μM ATPγS, 0.1% DMSO"}}}
{"compound": "Nc1ncnc2c1ncn2[C@@H]1O[C@H](COP(O)(O)=S)[C@@H](O)[C@H]1O", "note": "[AMPS]", "values": [{"measurement": "effect on Δ[Ca2+]cyt together with OGA", "setting": "Δ[Ca^2+]cyt", "result": "significant inhibitory effect"}]}
{"compound": "Nc1ncnc2c1ncn2[C@@H]1O[C@H](COP(=O)(O)OP(=O)(O)O)[C@@H](O)[C@H]1O", "note": "[ADP]", "values": [{"measurement": "change in [Ca2+]cyt", "setting": "[Ca^2+]cyt", "result": "no change"}, {"measurement": "induction of membrane depolarization", "setting": "[1]", "result": "induced large depolarizations"}, {"measurement": "EC50", "setting": "[1]; dose-response studies, read-out: half-maximal depolarization", "result": "~10", "unit": "µM"}, {"measurement": "abundance of mRNAs (MAP kinases, ERF2, ERF3, ERF4, ACS6)", "setting": "[2]; application of 500 μM", "result": "induced an increased abundance"}, {"measurement": "concentration that could inhibit the straight growth of roots", "setting": "roots", "result": 3, "unit": "mM"}]}
{"compound": "Nc1ncnc2c1ncn2[C@@H]1O[C@H](COP(=O)(O)O)[C@@H](O)[C@H]1O", "note": "[AMP]", "values": [{"measurement": "induction of membrane depolarization", "setting": "[1]", "result": "did not"}, {"measurement": "effect on superoxide production", "setting": "Arabidopsis leaves; equivalent concentrations delivered into the leaves", "result": "no significant effect"}, {"measurement": "effect on [Ca2+]cyt", "setting": "[3]; excised roots", "result": "Neither AMP or phosphate induced any significant change"}]}
{"compound": "O=c1onc2cnc3ccccc3n12", "note": "[ODQ, 1H-[1,2,4]Oxadiazolo[4,3,-a]quinoxalin-1-one]", "values": [{"measurement": "effect on pollen tube elongation alone", "setting": "Arabidopsis pollen tubes; 100 μM ODQ alone, 0.5% DMSO", "result": "no effect"}, {"measurement": "reversal of inhibition of pollen tube elongation", "setting": "Arabidopsis pollen tubes; 100 μM ODQ with 100 μM ATPγS, 0.5% DMSO", "result": "reversed the inhibition"}, {"measurement": "reversal of inhibition of pollen germination", "setting": "Arabidopsis pollen; 100 μM ODQ with 250 μM ATPγS", "result": "reverse the inhibition"}]}
{"compound": "CCCC(=O)Nc1nc2c(ncn2C2OC3COP(=O)([O-])OC3C2OC(=O)CCC)c(=O)[nH]1.[Na+]", "note": "(stereo not drawn) [DibcGMP, N2,2-O-dibutyrylguanosine 3′:5′-cyclic monophospohate]", "values": [{"measurement": "effect of added NO pathway agonist on pollen germination with ATPγS", "setting": "Arabidopsis pollen; [5]", "result": "caused 50 μM ATPγS to become inhibitory"}]}
{"compound": "Cc1nc(N=Nc2ccc(S(=O)(=O)O)cc2S(=O)(=O)O)c(COP(=O)(O)O)c(C=O)c1O", "note": "[PPADS, pyridoxalphosphate-6-azophenyl-2′,4′-disulfonic acid]", "values": [{"measurement": "blocking of ATP-induced superoxide production", "setting": "Arabidopsis leaves; inhibitor treatment", "result": "block the response"}, {"measurement": "suppression of the response of roots to eATP", "setting": "[3]", "result": "completely suppressed"}]}
{"compound": "CC(C)Cn1c(=O)n(C)c(=O)c2[nH]cnc21", "note": "[IBMX, 3-isobutyl-1-methylxanthine]", "values": [{"measurement": "effect of added NO pathway agonist on pollen germination with ATPγS", "setting": "Arabidopsis pollen; [6]", "result": "cause 50 μM ATPγS to inhibit pollen germination"}]}
{"compound": "NCCCNCCCCN(CCCN)N(O)N=O", "note": "[SNAP, N-[4-[1-(3-Aminopropyl)-2-hydroxy-2-nitrosohydrazino]butyl]-1,3-propanediamine]", "values": [{"measurement": "effect of added NO pathway agonist on pollen germination with ATPγS", "setting": "Arabidopsis pollen; [6]", "result": "cause 50 μM ATPγS to inhibit pollen germination"}]}
{"compound": "Nc1ncnc2c1ncn2[C@@H]1O[C@H](COP(=O)(O)OP(O)(O)=S)[C@@H](O)[C@H]1O", "note": "[ADPβS]", "values": [{"measurement": "agonist of pollen responses", "setting": "Arabidopsis pollen", "result": "active agonist"}, {"measurement": "effect on Δ[Ca2+]cyt together with OGA", "setting": "Δ[Ca^2+]cyt", "result": "similarly increased"}, {"measurement": "concentration that could inhibit the straight growth of roots", "setting": "roots", "result": 0.3, "unit": "mM"}]}
{"compound": "Nc1nc2c(ncn2[C@@H]2O[C@H](COP(=O)(O)OP(=O)(O)OP(=O)(O)O)[C@@H](O)[C@H]2O)c(=O)[nH]1", "note": "[GTP]", "values": [{"measurement": "induction of membrane depolarization", "setting": "[1]", "result": "induced large depolarizations"}]}
{"compound": "[Gd]", "note": "[gadolinium]", "values": [{"measurement": "suppression of the response of roots to eATP", "setting": "[3]", "result": "completely suppressed"}, {"measurement": "blocking of nucleotide-induced gene expression changes", "setting": "[2]; cells pre-treated", "result": "partially blocked"}]}
{"compound": "Nc1ncnc2c1ncn2[C@@H]1O[C@H](COP(O)(O)=S)[C@@H](O)[C@H]1O", "note": "[AMPαS]", "values": [{"measurement": "effect on pollen tube elongation rates", "setting": "Arabidopsis pollen tubes; up to about 250 μM", "result": "no significant effect"}, {"measurement": "agonist of pollen responses", "setting": "Arabidopsis pollen", "result": "is not"}, {"measurement": "percent of germinated pollen", "setting": "Arabidopsis pollen; PGM with about zero to about 400 μM", "result": "did not significantly change"}, {"measurement": "DAF-2D fluorescence", "setting": "[4]", "result": "did not significantly change"}]}
{"compound": "CCN(CC)[N+]([O-])=NO", "note": "[NONOate, 2-(N,N-Diethylamino)-diazenolate 2-oxide]", "values": [{"measurement": "effect of added NO pathway agonist on pollen germination with ATPγS", "setting": "Arabidopsis pollen; [5]", "result": "caused 50 μM ATPγS to become inhibitory"}]}
{"compound": "Nc1ccn([C@@H]2O[C@H](COP(=O)(O)OP(=O)(O)OP(=O)(O)O)[C@@H](O)[C@H]2O)c(=O)n1", "note": "[CTP]", "values": [{"measurement": "induction of membrane depolarization", "setting": "[1]", "result": "did not"}]}
{"compound": "Cc1cn([C@H]2C[C@H](O)[C@@H](COP(=O)(O)OP(=O)(O)OP(=O)(O)O)O2)c(=O)[nH]c1=O", "note": "[TTP]", "values": [{"measurement": "induction of membrane depolarization", "setting": "[1]", "result": "did not"}]}
{"compound": "O=c1ccn([C@@H]2O[C@H](COP(=O)(O)OP(=O)(O)OP(=O)(O)O)[C@@H](O)[C@H]2O)c(=O)[nH]1", "note": "[UTP]", "values": [{"measurement": "concentrations at which ineffective on [Ca2+]cyt", "setting": "[3]; excised roots", "result": "below 100 μM"}]}
{"compound": "phosphate", "values": [{"measurement": "induction of membrane depolarization", "setting": "[1]", "result": "no effect"}, {"measurement": "effect on [Ca2+]cyt", "setting": "[3]; excised roots", "result": "Neither AMP or phosphate induced any significant change"}]}
